This is an account of results in patent publication US8344177B2, “Albumin binding molecules and uses thereof” (Philochem AG, priority 2006, dated 2013).

The nature of data set [1]: MRI analysis of major blood vessels of the brain. The data set is classed as in vivo, C57/B16 mice. The following applies: mice, 1.2 μmol i.v. How it is done:
All animal experiments were carried out in strict adherence to the Swiss law for animal protection. MR measurements were performed on a Bruker PharmaScan 47/16 MR system (Bruker BioSpin GmbH) operating at 200 MHz using a circular cryogenic surface coil for signal transmission and reception. Mice were anesthetized with 1.4-1.5% isoflurane in air:O2 (4:1). Scout scans were performed to asses the anatomy of the animal. The shortening effect of both contrast agents DTPA-Gd and 428-D-Lys-β-Ala-DTPA-Gd on the longitudinal blood relaxation time (T1) was investigated in two C57/B16 mice. For this purpose, transverse cine 2D images were acquired using the following sequence parameters: field of view (FOV): 19×19×0.5 mm3, matrix size: 128×128, flip angle: 15°, TE/TR: 3.0/14 ms, averages: 6, repetitions: 50, temporal resolution: 10.75 s, total scan time: 8 min 57 s. The inflowing blood was saturated by exciting a 4 mm thick slice (flip angle15°) cranial to the imaging plane. Contrast agents were injected into the tail vein after a baseline of twenty repetitions. Firstly, a dose of 1.2 μmol of DTPA-Gd and secondly, after a wait time of 30 min, a dose of 1.2 μmol of 428-D-Lys-β-Ala-DTPA-Gd was administered. The time course of the MR signal was analyzed in a large vessel and normalized to the baseline value for comparison.

The target of data set [2] is albumin (Homo sapiens, UniProt P02768). The conditions noted are these: background statement; cited from earlier work.
albumin, sequence (P02768 25-609, species assumed): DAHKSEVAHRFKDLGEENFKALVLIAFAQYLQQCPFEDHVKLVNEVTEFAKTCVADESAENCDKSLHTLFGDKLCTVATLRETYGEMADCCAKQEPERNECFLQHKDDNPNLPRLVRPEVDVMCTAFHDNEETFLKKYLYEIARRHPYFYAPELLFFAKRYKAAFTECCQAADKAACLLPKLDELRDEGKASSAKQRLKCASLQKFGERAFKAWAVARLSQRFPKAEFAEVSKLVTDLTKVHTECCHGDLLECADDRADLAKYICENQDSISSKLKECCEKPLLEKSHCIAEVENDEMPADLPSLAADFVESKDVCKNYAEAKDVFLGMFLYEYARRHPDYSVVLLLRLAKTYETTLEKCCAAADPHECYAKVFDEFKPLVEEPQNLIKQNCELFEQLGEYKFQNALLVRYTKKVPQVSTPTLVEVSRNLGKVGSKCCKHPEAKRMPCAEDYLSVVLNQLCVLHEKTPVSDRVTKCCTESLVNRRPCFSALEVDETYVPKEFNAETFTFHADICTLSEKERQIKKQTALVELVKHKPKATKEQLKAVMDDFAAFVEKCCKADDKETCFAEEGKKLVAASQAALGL
In data set [3] the target is HSA (Homo sapiens, UniProt P02768). Nature of the data set: Fluorescence polarisation with increasing amounts of HSA. The data set is classed as binding. The following applies: 100 nM compound, PBS, 1 h at 25° C., read-out: dissociation constant. The method, then:
100 nM of 428-D-Lys-FAM, 622-D-Lys-FAM and, for comparison, of fluorescein and of phenethylamine-FAM were incubated with increasing amounts of HSA in PBS for 1 h at 25° C. The fluorescence polarization was determined by excitation at 485 nm and measurement at 535 nm.
On the technique in general: In fluorescence polarisation assays a small probe gives low polarisation when free and higher when bound to something large.

A short description of data set [4]: Pharmacokinetic profiles of fluorescein and FAM derivatives in mouse (LC/MS/MS of plasma). The data set is classed as in vivo, 129SvPas mice. The following applies: for half-life: 129SvPas, mouse, in vivo, iv, 20 nmol. How it is done: In a further in vivo experiment, the pharmacokinetic properties of fluorescein, phenethylamine-FAM, 428-D-Lys-FAM, and 622-D-Lys-FAM were measured and compared. Clearance profiles for the four compounds differed distinctly (FIG. 14).
Pharmacokinetic analyses were performed under the Project Licenses 198/2005 of the Veterinaramt des Kantons Zürich (issued to Dario Neri). 129SvPas mice were injected into the tail vein with 20 nmol of fluorescein, Phenethylamine-FAM, 428-D-Lys-FAM, or 622-D-Lys-FAM dissolved in 100 μl of 100 mM Tris/HCl, 105 mM NaCl, pH 8.2 (2 mice each). 20-30 μl blood samples were taken from the vena saphena with EDTA coated capillaries (Sarstedt) 1, 5, 15, 30, 60, 120, 240, 360, 480 and 1440 minutes after injection and centrifuged. 5-10 μl of plasma were mixed with 40 μl of 0.1% trifluoroacetic acid and 200 μl of ethanol and incubated on ice for 1 hour. After one hour the samples were centrifuged to remove the precipitated proteins. The supernatant was dried under vacuum and subsequently redissolved in 50 μl of DMSO/H2O. 40 μl were injected into an LC/MS/MS system (Micromass Quattro micro API) and run on a linear gradient from in 0.1% HCOOH from 5% to 95% acetonitrile in ten minutes on a Waters XTerra MS C18 column ([…], 1×50 mm) while observing the daughter ions with m/z of 287.1 and 202.1 of the parent ion 333.1 for fluorescein, with m/z of 287.3 and 332.3 of the parent ion 480.2 for Phenethylamine-FAM, with m/z of 287.3, 377.2 and 505.2 of the parent ion 777.1 for 428-D-Lys-FAM, and with m/z of 287.3 and 505.4 of the parent ion 651.3 for 622-D-Lys-FAM. Comparing the area under the curve with a previously obtained dilution series of fluorescein and 428-D-Lys-FAM in plasma with identical sample preparation allowed the quantification of the molecules.

The nature of data set [5]: Pharmacokinetic profile of 428-ε-Lys-α-NH-FITC vs. fluorescein in mice (LC/MS/MS of serum). The arrangement: species or system 129SV mice. The conditions noted are these: 129SV, mouse, in vivo. How it is done:
The pharmacokinetic properties of conjugates of the invention are evaluated by injection of both said conjugate and the corresponding unconjugated agent (i.e. the agent that has not been modified by a compound of the invention) into mice and subsequent sampling of the conjugate and agent concentrations. Conjugate and agent concentrations are determined by Liquid Chromatography/Mass Spectrometry/Mass Spectrometry (LC-MS/MS) according to techniques known in the art.
100 μl of a 170 μM solution of fluorescein and of 428-ε-Lys-α-NH-FITC were injected into 2 pairs of immunocompetent 129SV mice.

For data set [6] the following is noted: high doses, bolus injection; depending on the patient group; cited from earlier work.
Data set [7] in a line: Fluorescein angiographic analysis of the retina (scanning-laser ophthalmoscopy). The data set is classed as in vivo, C57BL/6 mice. The conditions noted are these: mice, 50 nmol i.v. The method, then: To obtain functional information on the imaging properties of 428-D-Lys-FAM, a fluorescein angiographic analysis of the retina was performed. Fluorescein and 428-D-Lys-FAM were injected i.v. into mice and pictures of the eye fundus taken at different time-points. The fluorescein angiographic pictures confirmed the results of the pharmacokinetic studies.
Scanning-laser opthalmoscopy imaging was performed with a Heidelberg Retina Angiograph (HRA I, Heidelberg Engineering, Germany), a confocal scanning-laser opthalmoscope, according to previously described procedures [see reference 39]. Briefly, wild-type C57BL/6 mice were anaesthetized with ketamine (66.7 mg/kg) and xylazine (11.7 mg./kg), and their pupils were dilated with tropicamide eye drops (Mydriaticum Stulln, Pharma Stulln, Germany). The HRA features two argon wavelengths (488 nm and 514 nm) in the short wavelength range and two infrared diode lasers (795 nm and 830 nm) in the long wavelength range. The laser wavelength of 488 nm was used for fluorescein angiography, with a barrier filter at 500 nm. Four mice each received either 50 nmol of fluorescein or 428-D-Lys-FAM dissolved in 100 μl of 100 mM Tris/HCl, 105 mM NaCl, pH 8.2 injected i.v. into the tail. […] In particular, the brightness value in this study was fixed so that the brightest image (428-D-Lys-FAM at 1 minute following injection) could be recorded without overexposure. […]

For data set [8] the following is noted: background, reference 2; cited from earlier work.

As usually defined, the half-life is the time needed for the level to fall by half in the phase considered. The low end stands for fast loss, the high end for slow loss.

HSA, sequence (P02768 25-609): as the sequence (P02768 25-609, species assumed) above

For `O=C([O-])CN(CCN(CC(=O)[O-])CC(=O)O)CCN(CC(=O)[O-])CC(=O)O.[Gd+3]` [DTPA-Gd, Gadolinium (III)—diethyltriaminepentaacetic acid], the “extravasation observed by MRI” value in data set [1] is on record as “Rapid extravasation”.

In the case of `C=CC1=C(C)/C(=C/c2[nH]c(Cc3[nH]c(/C=C4\NC(=O)C(C)=C4C=C)c(C)c3CCC(=O)O)c(CCC(=O)O)c2C)NC1=O` [bilirubin], the “affinity / dissociation constant to albumin (in words)” value in data set [2] is “nanomolar affinity”.

In the case of `O=C(NCCc1ccccc1)c1ccc2c(c1)C(=O)OC21c2ccc(O)cc2Oc2cc(O)ccc21` [phenethylamine-FAM], the Kd in data set [3] is 17 µM. Moreover, the half-life in data set [4] (t1/2, α) stood at 5 min; in data set [4] (t1/2, β), 53 min.

Turning to `O=C1OC2(c3ccc(O)cc3Oc3cc(O)ccc32)c2ccccc21` [fluorescein], the half-life in data set [5] is 12.5 min; in data set [4] (t1/2 (monophasic profile)), 4.6 min. Further, in data set [6], the “patients with nausea and vomit” value is given as “up to 20%”. The Kd in data set [3] was determined as 76 µM. Moreover, the “time after which staining of the blood vessels not detectable” value in data set [7] was found to be 20 min. Further, the “time after injection at which no longer detectable” value in data set [4] (mice, 20 nmol into the tail vein, plasma) is 30 min.

As to `COc1cccc2c1C(=O)c1c(O)c3c(c(O)c1C2=O)C[C@@](O)(/C(CO)=N/NC(=O)CCCCCN1C(=O)C=CC1=O)C[C@@H]3O[C@H]1C[C@H](N)[C@H](O)[C@H](C)O1` [DOXO-EMCH], the “maximum tolerated dose relative to unmodified doxorubicin” value in data set [8] was 2-10 times.
